Data on one molecule can be found in article PMC4649711, “In1-ghrelin splicing variant is overexpressed in pituitary adenomas and increases their aggressive features” (Scientific Reports, 2015).

Each structure is given as a SMILES string. Entries after “also recorded” stand apart in the source; their conditions may differ.

Holding throughout (type): cell-based, human
In assay [1] the test system is NFPAs. Put plainly: cell viability of NFPA primary cultures, peptide treatment. As to conditions: 100 nM, alamar-blue, n = 3–15. How it is done:
(§1) Pituitary adenoma specimens were dispersed into single cells by enzymatic and mechanical disruption and cultured onto tissue culture plates in serum containing medium, as previously described. Briefly, pituitary samples were resected by endoscopic transsphenoidal surgery and transferred to sterile cold (4°C) culture medium (S-MEM, Gibco, Madrid, Spain) supplemented with 0.1% BSA, 0.01% L-glutamine, 1% antibiotic-antimycotic solution, and 2.5% HEPES. Samples were minced under sterile conditions into 1–2 mm^3 pieces. Some pieces were stored at −80°C for posterior RNA isolation and, when possible, the remaining tissue samples were washed and incubated in 30 mL S-MEM medium supplemented 0.3% trypsin (Beckson, Dickinson and Company, Sparks, MD, USA) in a spinner flask (Bellco Glass, Vineland, NJ, USA) for 2 h of gentle shaking at 37°C and then, incubation was continued for another 5 min in presence of 1 mg of DNAse I (Roche, Mannheim, Germany). Dispersed cells were decanted by centrifugation and then, by repeated aspiration into a smoothtipped glass Pasteur pipette. […]
As previously reported, cell viability was estimated using alamar-blue reagent (10,000 cells/well-plate; Biosource International, Camarillo, CA, USA)[30][50][52]. […] Reduction of alamar-blue reagent was quantified exciting at 560 nm and reading at 590 nm using the FlexStation III system (Molecular Devices, Sunnyvale, CA, USA). […]
In general terms: Alamar Blue is a resazurin reagent that responds to reducing activity.

The test system of assay [2] is GH-omas. Put plainly: GH secretion from GH-oma primary cultures. As to conditions: 100 nM; 4 h and 24 h; ELISA; % of vehicle; n = 3–7. The procedure: Pituitary adenoma specimens were dispersed into single cells by enzymatic and mechanical disruption and cultured onto tissue culture plates in serum containing medium, as previously described. Briefly, pituitary samples were resected by endoscopic transsphenoidal surgery and transferred to sterile cold (4°C) culture medium (S-MEM, Gibco, Madrid, Spain) supplemented with 0.1% BSA, 0.01% L-glutamine, 1% antibiotic-antimycotic solution, and 2.5% HEPES. Samples were minced under sterile conditions into 1–2 mm^3 pieces. […]
To examine the effects of ghrelin system components (4- and/or 24 h-incubation) on pituitary hormone release from primary pituitary adenoma and/or AtT-20 cell line, 100,000–200,000 cell/well were used. As previously reported, hormone concentrations were measured in the culture media derived from human samples according to the pituitary adenoma type using commercial ELISAs [growth hormone, GH; adrenocorticotropin, ACTH; and prolactin, PRL (reference numbers: EIA-3552, EIA-3647 and EIA-1291, respectively; DRG, Mountainside, NJ, USA)] following the manufacturer's instructions. […]
Background: In an ELISA, binding on a coated surface is turned into a signal by an enzyme label.

Assay [3] concerns p-ERK1/2. Put plainly: ERK1/2 phosphorylation by western blot in GH-omas. As to conditions: 100 nM, 8 minutes, p-ERK1/2/total ERK1/2 vs vehicle (100%), n = 4. How it is done: as §1, with “pipette. Cells suspensions were washed once in 4.5 g/L glucose containing DMEM medium (Gibco, Madrid, Spain) supplemented with 0.1% BSA, 0.01% L-glutamine, 1% antibiotic-antimycotic solution, and 2.5% HEPES.” for “pipette.”

As for `CCCCCCCC(=O)OC[C@H](NC(=O)[C@H](CO)NC(=O)CN)C(=O)N[C@@H](Cc1ccccc1)C(=O)N[C@@H](CC(C)C)C(=O)N[C@@H](CO)C(=O)N1CCC[C@H]1C(=O)N[C@@H](CCC(=O)O)C(=O)N[C@@H](Cc1c[nH]cn1)C(=O)N[C@@H](CCC(N)=O)C(=O)N[C@@H](CCCNC(=N)N)C(=O)N[C@H](C(=O)N[C@@H](CCC(N)=O)C(=O)N[C@@H](CCC(N)=O)C(=O)N[C@@H](CCCNC(=N)N)C(=O)N[C@@H](CCCCN)C(=O)N[C@@H](CCC(=O)O)C(=O)N[C@@H](CO)C(=O)N[C@@H](CCCCN)C(=O)N[C@@H](CCCCN)C(=O)N1CCC[C@H]1C(=O)N1CCC[C@H]1C(=O)N[C@@H](C)C(=O)N[C@@H](CCCCN)C(=O)N[C@@H](CC(C)C)C(=O)N[C@@H](CCC(N)=O)C(=O)N1CCC[C@H]1C(=O)N[C@@H](CCCNC(=N)N)C(=O)O)C(C)C` [AG], the cell viability entry in assay [1] (24 h) is “reaching significant levels”; in assay [1] (time not specified in text (24-, 48- and/or 72-h)), “modest but consistent increments in cell viability; also recorded: increased NFPA cells viability”. The GH secretion entry in assay [2] is “similarly and significantly, increased GH secretion; also recorded: promoted GH secretion”. In addition, the p-ERK1/2 levels result in assay [3] was “clear increase; also recorded: increased both, p-ERK1/2 as well as p-Akt, levels”.
